Test results: patent publication US12378199B2, “Rigidified pentadentate chelating agents useful for the [Al18F]2+ labelling of biomolecules” (UNIVERSITÀ DEGLI STUDI DEL PIEMONTE ORIENTALE “A. AVOGADRO”, priority 2019, dated 2025)

Assay: stability of the AlF-18 complexes by incubation in human serum
Format: in vitro ADME
Protocol: The reactions for labelling with [AlF-18]^2+ were carried out at various pH (between 4 and 6.5) and at various temperatures (25, 37 and 80°). The preparation of [AlF-18]^2+ and the subsequent labelling with the chelating agents covered by the present patent were carried out according to the procedure cited by Bormans and colleagues (Nature Prot. 2018, 13, 2330-2347). The labeled products were purified using Sep-Pak Alumina N Plus Light cartridges and eluted with a 0.9% NaCl solution. All of the products were analyzed by means of radio-TLC and radio-HPLC and the stability of the tracers was studied at 10, 30, 60, 120 and 240 minutes by means of incubation in […] different solutions: human serum, PBS, EDTA 5 mM and 0.9% NaCl solutions.
An additional advantage is the stability in human serum detected for the compounds of the present invention. An increased stability in human serum was measured for the chelating agent 2-AMPDA-HB, with 90% of AlF-18 still complexed after 120 minutes, whereas the complexed percentage was 55% for the chelating agent 2-AMPTA.

O=C(O)CN(CC(=O)O)CC1CCCCN1CC(=O)O (centres unmarked) [2-AMPTA]
AlF-18 still complexed in human serum (after 120 minutes): 55% | stability of the AlF-18 complexes in human serum (after 240 minutes): 33%
